Results from patent publication US20070269793A1, “Bioactive Boxes for Cellular Cultures” (priority 2003, published 2007).

Experiments:
Format in all cases: cell-based, murine
[1] = system: B16 C3 line; assay: Proliferation, cell count (Malassez hemocytometer); details: B16 C3 on PS in the presence of MSH (same in its absence), 48 hours
Experimental: (§1) The cells are cultured in medium supplemented by 10% foetal calf serum, 1% L-Glutamine and 0.5% antibiotics (penicillin, streptomycin).
(§2) —b—proliferation: 10,000 cells are seeded per cm^2. The cells are counted (Malassez hemocytometer) after culture for 24 and 48 hours.
(§3) It should be noted that the B16 F0 and B16 F10 lines proliferate more on cellulose that the B16 C3 line, which is non-metastatic. The number of B16 F0 and F10 cells is multiplied by 3 on cellulose. It is multiplied by 6 on PS, in the presence or absence of MSH 10^−7 M melanin-stimulating hormone used as a second control.

[2] = system: B16 F0 and B16 F10 lines; assay: Proliferation, cell count (Malassez hemocytometer); details: B16 F0 and F10 on PS in the presence of MSH 10^−7 M (same in its absence)
Experimental: as §1, §2, §3

[3] = system: Fn; assay: Fn synthesis (indirect immunolabelling); details: three melanoma lines cultured on PS with MSH
[4] = system: B16 melanoma cells; assay: Calcium dependence of cell aggregation; details: absence of Ca^++; 3 lines, after 1 and 3 hours

## melanin-stimulating hormone [MSH]
[1]
  number of cells multiplied by: 2
[2]
  number of cells multiplied by: 6
[3]
  Fn synthesis: increase in Fn synthesis

## monencin
[4]
  percentage of cells isolated: very significantly increased
